In PubChem BioAssay (NCI) one finds TGI and GI50 data, which are given here for 14 compounds.

Structures are written as SMILES.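 96-well plates; 48 h exposure; 5 concentrations. Endpoints by linear interpolation between flanking doses. Not reached: highest tested concentration assigned. Abbreviation: GI50, concentration required for 50% inhibition of growth. At the TGI there is no net growth.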

Test systems include M14 melanoma; PC-3 prostate; SF-268 CNS; NCI/ADR-RES ovarian; NCI-H522 lung; RXF 393 renal; K-562 leukemia; HS 578T breast; COLO 205 colon; MALME-3M melanoma; CAKI-1 renal; NCI-H226 lung; CCRF-CEM leukemia.
Holding throughout (test): inhibition of tumour cell growth, NCI panel, 48 h

As for `O=C(O)c1ccccc1CN1CCCC(C(=O)O)C1` (configuration not stated), the TGI with M14 melanoma, with PC-3 prostate, in the assay on SF-268 CNS, in the assay with NCI/ADR-RES ovarian, in the assay with NCI-H522 lung and in the assay with RXF 393 renal was > 100 µM each time. Further, the TGI in the assay with K-562 leukemia, with HS 578T breast, with COLO 205 colon, in the assay on MALME-3M melanoma, in the assay with CAKI-1 renal and with NCI-H226 lung was > 100 µM in each case.
In the case of `CC(C)(C)[Si](C)(C)OCC1OC(n2cnc3c(N)ncnc32)C2OC(=S)OC12` (configuration not stated), the TGI is > 100 µM in the assay with M14 melanoma; 59 µM in the assay with CCRF-CEM leukemia; > 100 µM with PC-3 prostate; 81.2 µM in the assay with NCI/ADR-RES ovarian; > 100 µM in the assay with RXF 393 renal; > 100 µM with K-562 leukemia. Also, the TGI is > 100 µM in the assay on HS 578T breast; > 100 µM in the assay on COLO 205 colon; 98.3 µM with MALME-3M melanoma; > 100 µM in the assay on CAKI-1 renal; > 100 µM with NCI-H226 lung.
Turning to `Nc1ccccc1N`, the TGI with M14 melanoma was > 100 µM; with CCRF-CEM leukemia it was > 100 µM; with SF-268 CNS, > 100 µM; in the assay on NCI-H522 lung, 47.5 µM; in the assay on RXF 393 renal, > 100 µM; with K-562 leukemia it was > 100 µM. The TGI in the assay on COLO 205 colon, in the assay with MALME-3M melanoma and with CAKI-1 renal was > 100 µM in each case.
As to `CCOc1ccc(/C=C2\N=C(c3ccccc3)OC2=O)cc1`, the TGI in the assay on M14 melanoma, in the assay on CCRF-CEM leukemia, in the assay with PC-3 prostate, in the assay on SF-268 CNS, in the assay with NCI/ADR-RES ovarian and in the assay on NCI-H522 lung was > 100 µM in each case. In addition, the TGI in the assay with RXF 393 renal, with K-562 leukemia, in the assay on HS 578T breast and with NCI-H226 lung was > 100 µM in each case.
As for `NCCCCCC(CCN)SCC1OC(n2cnc3c(N)ncnc32)C(O)C1O` (configuration not stated), the TGI in the assay with CCRF-CEM leukemia, in the assay with SF-268 CNS, in the assay with NCI/ADR-RES ovarian, with NCI-H522 lung, in the assay with RXF 393 renal and in the assay with K-562 leukemia was > 1500 µM throughout. Also, the TGI in the assay with COLO 205 colon is > 1500 µM; in the assay on MALME-3M melanoma, > 1500 µM; in the assay on CAKI-1 renal it was 1270 µM; in the assay with NCI-H226 lung, > 1500 µM.
For the compound `Cc1cccc2cc(/C=C/C(=O)/C=C/c3ccc(Cl)cc3)c(=O)[nH]c12`, the GI50 was 3.98 µM in the assay with CCRF-CEM leukemia; > 100 µM with NCI/ADR-RES ovarian; 3.8 µM in the assay with K-562 leukemia; > 100 µM in the assay on HS 578T breast; > 100 µM in the assay with MALME-3M melanoma; > 100 µM in the assay on CAKI-1 renal. Moreover, the TGI in the assay on CCRF-CEM leukemia is 88.8 µM; in the assay with NCI/ADR-RES ovarian, > 100 µM; in the assay on K-562 leukemia it was > 100 µM; in the assay with HS 578T breast, > 100 µM; in the assay with MALME-3M melanoma, > 100 µM; with CAKI-1 renal, > 100 µM.
For `COc1ccc(-c2cc(N3CCN(c4ccc(Cl)cc4)CC3)c(C#N)c(=O)o2)cc1`, the TGI was > 100 µM in the assay with M14 melanoma; 33.5 µM in the assay with SF-268 CNS; 17.3 µM in the assay on RXF 393 renal; > 100 µM with COLO 205 colon; 22.3 µM in the assay with MALME-3M melanoma; 34.2 µM with CAKI-1 renal. This compound also returned a TGI in the assay with NCI-H226 lung of 7.57 µM.
With `CN1C2CCC1/C(=C/c1cccc3c1OCO3)C(=O)/C2=C\c1cccc2c1OCO2`, the TGI in the assay with M14 melanoma was > 100 µM; in the assay with CCRF-CEM leukemia it was > 100 µM; in the assay on SF-268 CNS, > 100 µM; in the assay on RXF 393 renal, 68 µM; with COLO 205 colon it was > 100 µM; in the assay with MALME-3M melanoma, > 100 µM. In addition, the TGI in the assay with NCI-H226 lung was > 100 µM.
For `COC(=O)/C=C1\SC2(OC1=Nc1ccccc1)C1CC3CC(C1)CC2C3` (configuration not stated), the TGI with CCRF-CEM leukemia, with PC-3 prostate, in the assay with NCI/ADR-RES ovarian, in the assay on NCI-H522 lung, in the assay with RXF 393 renal and with K-562 leukemia was > 100 µM throughout. The TGI in the assay with HS 578T breast, in the assay on CAKI-1 renal and in the assay with NCI-H226 lung was > 100 µM in each case.
For `CCOC(=O)CC1=N/C(=N/C(=N)N[N+](=O)[O-])SC1`, the TGI in the assay with M14 melanoma, in the assay with CCRF-CEM leukemia, in the assay with SF-268 CNS, in the assay on NCI-H522 lung, in the assay with RXF 393 renal and with K-562 leukemia was > 100 µM each time. In addition, the TGI with COLO 205 colon, in the assay on MALME-3M melanoma, in the assay with CAKI-1 renal and in the assay with NCI-H226 lung was > 100 µM each time.
Take `Fc1ccc(Nc2nc(Cl)c3[nH]cnc3n2)cc1Cl`: the TGI with M14 melanoma, in the assay with CCRF-CEM leukemia, in the assay with PC-3 prostate, in the assay with SF-268 CNS, with NCI/ADR-RES ovarian and in the assay with NCI-H522 lung was > 100 µM in each case. The TGI in the assay on HS 578T breast, in the assay on COLO 205 colon, in the assay with MALME-3M melanoma, in the assay with CAKI-1 renal and with NCI-H226 lung was > 100 µM throughout.
For the compound `NC(Cc1ccc(CP(=O)(O)O)cc1)C(=O)O` (configuration not stated), the TGI in the assay on M14 melanoma, in the assay with CCRF-CEM leukemia, with PC-3 prostate, with SF-268 CNS, in the assay on NCI/ADR-RES ovarian and in the assay with NCI-H522 lung was > 100 µM throughout. Also, the TGI in the assay with RXF 393 renal, in the assay on K-562 leukemia, with HS 578T breast, in the assay with COLO 205 colon and with CAKI-1 renal was > 100 µM each time.
Take `C/C(=N/NC(=O)c1ccncc1)C(F)(F)F`: the TGI in the assay with M14 melanoma, with PC-3 prostate, in the assay with NCI/ADR-RES ovarian, in the assay on NCI-H522 lung, with RXF 393 renal and in the assay on K-562 leukemia was > 100 µM each time. In addition, the TGI in the assay with HS 578T breast, in the assay with COLO 205 colon, in the assay with MALME-3M melanoma, in the assay on CAKI-1 renal and in the assay on NCI-H226 lung was > 100 µM throughout.
For `C=C=C[P+](c1ccccc1)(c1ccccc1)c1ccccc1`, the TGI in the assay on M14 melanoma is 19.5 µM; in the assay on CCRF-CEM leukemia it was 22.3 µM; in the assay with SF-268 CNS, > 100 µM; in the assay with NCI-H522 lung, 6 µM; in the assay with K-562 leukemia, 9.46 µM; in the assay on COLO 205 colon, 10.3 µM. For the same compound, the TGI in the assay with MALME-3M melanoma worked out at 26.7 µM.
